Holding throughout (assay): inhibition of tumour cell growth, NCI panel, 48 h
Test [1] deals with OVCAR-5.
Test [2] deals with UO-31.
For test [3], the system named is SN12C.
Test [4] has as its system NCI/ADR-RES.
For test [5], the system named is MDA-MB-231.
For test [6], the system named is SK-OV-3.
The subject of test [7] is NCI-H460.
The test system of test [8] is MDA-MB-435.
Test [9] concerns ACHN.
For test [10], the system named is EKVX.
The subject of test [11] is NCI-H226.
Test [12] concerns SR.
In test [13] the test system is OVCAR-3.
The subject of test [14] is HT-29.
For test [15], the system named is DU-145.
For test [16], the system named is COLO 205.
Test [17] concerns MOLT-4.
The test system of test [18] is T47D.
The subject of test [19] is BT-549.
Test [20] has as its system SNB-19.

SMILES strings stand for the structures.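 The compound was tested at five concentrations on cells cultured in 96-well plates, with a 48-hour exposure period. GI50 = concentration required for 50% inhibition of growth.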 Calls of active or inactive are those of the source. No stated cut-off is given here; in the data, active = GI50 up to about 1.1 µM and inactive = higher. Some results are limits rather than exact numbers.

In the case of `COC1=C(OC)C(=O)C(Sc2ccc3ccccc3c2)=CC1=O`, the GI50 in test [1] was 15.6 µM (inactive); in test [2], 6.11 µM (inactive); in test [3], 7.87 µM (inactive); in test [4], 14.7 µM (inactive); in test [5], 11.4 µM (inactive); in test [6], 16.1 µM (inactive). Moreover, the GI50 in [7] is 7.67 µM (inactive); in test [8] it was 4.25 µM (inactive); in test [9], 8.28 µM (inactive); in test [10] it was 11.9 µM (inactive); in [11] it was 6.03 µM (inactive); in test [12], 2.09 µM (inactive). The GI50 is 4.63 µM (inactive) in [13]; 14.7 µM (inactive) in [14]; 14.5 µM (inactive) in [15]; 7.24 µM (inactive) in test [16]; 1.68 µM (inactive) in [17]; 5.58 µM (inactive) in test [18]. Also, the GI50 in [19] is 9.2 µM (inactive); in [20], 14.1 µM (inactive).

As to `CC(=O)OCC(OC(C)=O)C(OC(C)=O)C(OC(C)=O)C(C=NN(C(C)=O)S(=O)(=O)c1ccc(/C=C2\NC(=O)N(C)C2=O)cc1)OC(C)=O` (stereo not drawn), the GI50 in [1] is 37.8 µM (inactive); in [2], 35.9 µM (inactive); in [3], 30.6 µM (inactive); in test [4] it was 73.3 µM (inactive); in [5], 33.5 µM (inactive); in test [6], 31.4 µM (inactive). For the same molecule, the GI50 in test [7] is 18.8 µM (inactive); in test [8], 33.1 µM (inactive); in test [9], 37.4 µM (inactive); in test [10] it was 23.2 µM (inactive); in test [11], 22.8 µM (inactive); in test [12], 11.8 µM (inactive). The GI50 in [13] is 29.7 µM (inactive); in test [14] it was 24.7 µM (inactive); in test [15], 29.5 µM (inactive); in [16], 29.3 µM (inactive); in [17], 10.6 µM (inactive); in test [18] it was 15.9 µM (inactive). Moreover, the results for the GI50 in [19] and in test [20] were 12.4 µM (inactive) and 38.2 µM (inactive), respectively.

In the case of `NC(=O)C(=CNC(=S)Nc1ccc(S(=O)(=O)Nc2ccccn2)cc1)C(N)=O`, the GI50 was > 100 µM (inactive) in [1]; > 100 µM (inactive) in [2]; > 100 µM (inactive) in [3]; 55.3 µM (inactive) in test [4]; > 100 µM (inactive) in test [5]; > 100 µM (inactive) in test [6]. Moreover, the GI50 in test [7] was > 100 µM (inactive); in test [8], > 100 µM (inactive); in test [9], > 100 µM (inactive); in test [10], > 100 µM (inactive); in test [11], > 100 µM (inactive); in [12] it was 41.5 µM (inactive). Moreover, the GI50 was > 100 µM (inactive) in test [13]; > 100 µM (inactive) in test [14]; > 100 µM (inactive) in test [15]; > 100 µM (inactive) in test [16]; 1.52 µM (inactive) in test [17]; > 100 µM (inactive) in test [18]. Besides, the GI50 in test [19] and in test [20] was > 100 µM (inactive) each time.

For `COc1cc(-c2oc3c(OC)c(O)cc(O)c3c(=O)c2OC)ccc1O`, the GI50 was 22.3 µM (inactive) in test [1]; 3.08 µM (inactive) in test [2]; 13.1 µM (inactive) in [3]; 10.8 µM (inactive) in test [4]; 7.76 µM (inactive) in [5]; 1.55 µM (inactive) in [6]. For the same molecule, the GI50 in test [7] is 6.95 µM (inactive); in [8], 7.35 µM (inactive); in test [9], 3.99 µM (inactive); in test [10], 21.8 µM (inactive); in [11] it was 12.9 µM (inactive); in test [12], 3.24 µM (inactive). Besides, the GI50 in test [13] was 2.68 µM (inactive); in test [14], 37.4 µM (inactive); in test [15], 7.06 µM (inactive); in [16] it was 29.1 µM (inactive); in test [17] it was 4.92 µM (inactive); in test [18] it was 2.38 µM (inactive). The GI50 in [19] is 5.18 µM (inactive); in test [20] it was 41.4 µM (inactive).

Regarding `O=c1[nH]c(=S)[nH]c(-c2ccccc2)c1Cc1c(O)ccc2ccccc12` [CAMBINOL], the GI50 is 33.4 µM (inactive) in test [1]; 29.6 µM (inactive) in [2]; 32.7 µM (inactive) in test [3]; 33.5 µM (inactive) in test [4]; 38.6 µM (inactive) in test [5]; 46.1 µM (inactive) in test [6]. The GI50 in test [7] was 48.2 µM (inactive); in test [8] it was 31 µM (inactive); in test [9], 34 µM (inactive); in test [10], 26.1 µM (inactive); in [11] it was 29.6 µM (inactive); in [12] it was 34.8 µM (inactive). Further, the GI50 is 54.3 µM (inactive) in test [13]; 39.4 µM (inactive) in [14]; 41.9 µM (inactive) in [15]; 21.5 µM (inactive) in [16]; 26.1 µM (inactive) in test [17]; 24.4 µM (inactive) in test [18]. In addition, the GI50 in test [19] was 27.1 µM (inactive); in test [20] it was 37.2 µM (inactive).

`CCN(CC)CCN(C)c1ccc(CO)c2c1c(=O)c1ccccc1[s+]2[O-]` (stereo not drawn): the GI50 in [1] was 11.4 µM (inactive); in test [2] it was 16.3 µM (inactive); in [3], 15.2 µM (inactive); in test [4], 1.74 µM (inactive); in test [5], 2.84 µM (inactive); in test [6], 16.1 µM (inactive). Also, the GI50 in test [7] was 4.62 µM (inactive); in test [8] it was 2 µM (inactive); in test [9] it was 11.1 µM (inactive); in test [10], 5.96 µM (inactive); in [11] it was 17.7 µM (inactive); in test [12], 2.28 µM (inactive). Also, the GI50 in test [13] is 1.95 µM (inactive); in test [14], 2.11 µM (inactive); in test [15] it was 14.6 µM (inactive); in test [16], 7.06 µM (inactive); in test [17], 2.25 µM (inactive); in [18], 13.4 µM (inactive). For the same molecule, the GI50 in [19] was 13.8 µM (inactive); in [20] it was 13.2 µM (inactive).

With `Cc1c(-c2ccccc2)c(-c2ccc(OCCN(C)C)cc2)n2ccccc12`, the GI50 in test [1] is 15 µM (inactive); in [2] it was 9.48 µM (inactive); in test [3], 12.1 µM (inactive); in test [4] it was 13.2 µM (inactive); in test [5], 10.9 µM (inactive); in test [6], 15.8 µM (inactive). Further, the GI50 in test [7] was 2.51 µM (inactive); in test [8], 3.79 µM (inactive); in test [9], 13.9 µM (inactive); in test [10], 15.3 µM (inactive); in [11], 15.2 µM (inactive); in test [12], 2.43 µM (inactive). In addition, the GI50 in test [13] is 12 µM (inactive); in test [14], 1.82 µM (inactive); in test [15] it was 13.3 µM (inactive); in [16], 1.64 µM (inactive); in test [17] it was 3.48 µM (inactive); in [18] it was 10.4 µM (inactive). Besides, the results for the GI50 in test [19] and in test [20] were 5.65 µM (inactive) and 12 µM (inactive), respectively.

As to `c1ccc2c(Nc3ncco3)cccc2c1`, the GI50 in test [1], in [2], in [3], in [4], in [5] and in test [6] was > 10 µM (inactive) in each case. Also, the GI50 in [7] was > 10 µM (inactive); in [8] it was > 10 µM (inactive); in test [9], > 10 µM (inactive); in test [10], > 10 µM (inactive); in test [11], > 10 µM (inactive); in test [12], 0.001 µM (active). For the same molecule, the GI50 in test [13], in test [14], in test [15], in test [16], in test [17] and in test [18] was > 10 µM (inactive) in each case. Moreover, the GI50 in test [19] and in test [20] was > 10 µM (inactive) throughout.

In the case of `CCOC1CN=C(Nc2cccc3ccccc23)S1` (stereo not drawn), the GI50 in test [1], in test [3], in [4], in test [5], in [6] and in test [7] was > 10 µM (inactive) in each case. The GI50 in test [8], in test [9], in test [10], in test [11], in test [12] and in [13] was > 10 µM (inactive) each time. Moreover, the GI50 in test [14], in test [15], in [16], in test [17], in [18] and in [19] was > 10 µM (inactive) in each case. Further, the GI50 in test [20] is > 10 µM (inactive).

On to `Cc1c(-c2ccccc2)c(C#N)c2nnn(-c3ccc(Cl)cc3)c(=O)n12`, for which the GI50 in test [1] is > 100 µM (inactive); in [2], 22.5 µM (inactive); in [3], 35.2 µM (inactive); in test [4], 17.6 µM (inactive); in test [5], 36.3 µM (inactive); in [6] it was 89.7 µM (inactive). In addition, the GI50 in [7] is 4.83 µM (inactive); in test [8] it was 31 µM (inactive); in test [9], 4.26 µM (inactive); in test [10] it was 50.9 µM (inactive); in test [11], 66.7 µM (inactive); in [12], 8.53 µM (inactive). Besides, the GI50 in test [13] was 16.4 µM (inactive); in [14] it was 15.8 µM (inactive); in [15], 38.5 µM (inactive); in test [16], 11 µM (inactive); in test [18] it was 6.14 µM (inactive); in test [19] it was 56.8 µM (inactive). Further, the GI50 in test [20] is > 100 µM (inactive).

Source of the values: ChEMBL document CHEMBL1201862, “PubChem BioAssay data set” (2004).
